Data reported in patent US20240034737A1, “Heterocyclic Derivatives as P2X7 Receptor Antagonists” (BREYE THERAPEUTICS APS, priority 2020, published 2024).

Columns and labels:
P2X7 receptor = P2X7 receptor (Homo sapiens (Human), UniProt Q99572); experiment: Human P2X7 channel calcium-influx assay (Fluo-8 NW, FLIPR TETRA, Bz-ATP stimulation); format: cell-based; settings: HEK-293 cells stably transfected with P2X7 receptor, Low Divalent Cation Assay Buffer, read-out: hP2X7 IC50
Method: (§1) Extracellular binding of Bz-ATP to P2X7 receptor opens the channel and allows Ca^2+ influx into the cells. This Ca^2+ entry was measured in HEK-293 cells stably transfected with P2X7 receptor using Screen Quest™ Fluo-8 No Wash Calcium Assay Kit (AAt Bioquest®, cat. 36316). Once inside the cell, the lipophilic blocking groups of Fluo-8 are cleaved by non-specific cell esterases, resulting in a negatively-charged fluorescent dye that stays inside cells. Its fluorescence increases upon binding to calcium. When HEK-293/P2X7 cells are stimulated with Bz-ATP, Ca^2+ enters the cells and the fluorescence of Fluo-8 NW increases.
(§2) HEK-293 cells stably transfected with P2X7 receptor were seeded overnight in growth medium at 10,000 to 20,000 cells/well in 384-well plate. 24 hours later, the medium was removed, and the cells were pre-loaded at RT for 1 hour with 20 μL/w of Fluo-8 NW. Then 10 μL/w of test compounds and reference antagonist A438079 at 3X-concentration were injected with the […] and the kinetic response over a period of five minutes was monitored.

mP2X7 = mP2X7 (Mus musculus (Mouse), UniProt Q9Z1M0); experiment: mP2X7 channel calcium-influx assay (Fluo-8 NW, FLIPR TETRA, Bz-ATP stimulation); format: cell-based
Method: as §1, §2

CYP4503A4 = CYP4503A4 metabolic induction (mRNA expression) in human cryopreserved platable hepatocytes; format: in vitro ADME; settings: 10 μM test compound, two days treatment, mRNA by QuantiGene Plex 2.0
Method: In Vitro Evaluation of Test Compounds for CYP4503A4 Metabolic Induction Using Human Liver Hepatocytes.
CYP induction assessment was performed using human cryopreserved platable hepatocytes. Test compound was assessed at three or six different concentrations in duplicate.
A sandwich culture of platable cryopreserved hepatocytes was used with one day recovery period after plating. Assessment of cell morphology and confluency was performed using a phase-contrast microscope for representative wells.
The plated hepatocyte cell monolayers were treated with test compound, negative and positive controls for two days changing medium every 24 hours. On the fourth day, assessment of cell morphology and confluency was repeated to ensure cell monolayer integrity. Assessment of cell morphology and confluency was performed using a phase-contrast microscope for representative wells.
Cell monolayers were assessed for test compound cytotoxicity by an adenosine triphosphate (ATP) content assay in a separate plate.
Expression levels of mRNA for CYP1A2, CYP2B6, and CYP3A4 were evaluated by the QuantiGene® Plex 2.0 methodology.

P2X7 receptor, sequence (Q99572 whole entry): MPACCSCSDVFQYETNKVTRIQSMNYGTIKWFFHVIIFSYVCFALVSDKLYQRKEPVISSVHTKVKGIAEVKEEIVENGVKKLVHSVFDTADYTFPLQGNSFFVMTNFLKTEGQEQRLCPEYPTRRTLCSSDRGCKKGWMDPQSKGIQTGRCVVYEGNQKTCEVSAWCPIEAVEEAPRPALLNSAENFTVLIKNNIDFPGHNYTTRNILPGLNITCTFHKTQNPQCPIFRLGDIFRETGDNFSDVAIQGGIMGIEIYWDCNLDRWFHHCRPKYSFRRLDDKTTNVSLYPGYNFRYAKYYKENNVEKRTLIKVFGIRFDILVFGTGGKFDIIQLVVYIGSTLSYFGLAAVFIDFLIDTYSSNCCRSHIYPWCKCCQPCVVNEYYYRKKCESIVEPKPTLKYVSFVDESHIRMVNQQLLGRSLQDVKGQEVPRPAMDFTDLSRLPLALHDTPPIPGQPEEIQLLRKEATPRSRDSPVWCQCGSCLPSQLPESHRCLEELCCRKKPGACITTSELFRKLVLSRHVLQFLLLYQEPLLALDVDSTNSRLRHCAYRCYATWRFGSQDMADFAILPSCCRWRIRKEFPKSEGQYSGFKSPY
mP2X7, sequence (Q9Z1M0 whole entry): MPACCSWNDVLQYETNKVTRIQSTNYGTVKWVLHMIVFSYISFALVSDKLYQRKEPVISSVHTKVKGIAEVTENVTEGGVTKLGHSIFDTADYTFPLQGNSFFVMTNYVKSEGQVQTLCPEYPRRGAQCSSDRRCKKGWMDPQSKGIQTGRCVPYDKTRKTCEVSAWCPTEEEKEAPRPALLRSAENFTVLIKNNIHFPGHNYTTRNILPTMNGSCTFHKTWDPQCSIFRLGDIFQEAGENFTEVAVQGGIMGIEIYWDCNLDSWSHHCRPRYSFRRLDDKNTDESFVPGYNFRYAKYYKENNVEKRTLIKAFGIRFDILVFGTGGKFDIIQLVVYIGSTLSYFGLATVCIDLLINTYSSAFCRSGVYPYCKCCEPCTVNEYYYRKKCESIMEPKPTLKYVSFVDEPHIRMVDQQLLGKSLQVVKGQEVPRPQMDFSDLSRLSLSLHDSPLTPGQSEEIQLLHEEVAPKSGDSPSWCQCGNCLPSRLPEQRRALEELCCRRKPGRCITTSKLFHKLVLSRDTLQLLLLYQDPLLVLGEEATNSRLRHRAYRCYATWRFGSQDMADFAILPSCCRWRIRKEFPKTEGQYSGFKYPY

Compound | IC50 (P2X7 receptor) | IC50 (mP2X7) | CYP4503A4 mRNA fold increase at 10 μM (CYP4503A4)
COc1cc(OC2CCN(C(CNC(=O)c3c(F)cccc3Cl)c3scnc3C(F)F)CC2)ncn1 (stereo not shown) [Example 65, 2-Chloro-N-{2-[4-(difluoromethyl)-1,3-thiazol-5-yl]-2-{4-[(6-methoxypyrimidin-4-yl)oxy]piperidin-1-yl}ethyl}-6-fluorobenzamide] | 56.2 nM | 96.2 nM | 4.9 fold
O=C(NCC(c1scnc1C(F)F)N1CCC(Oc2ncccc2F)CC1)c1c(F)cccc1Cl (stereo not shown) [Example 7, 2-chloro-N-{2-[4-(difluoromethyl)-1,3-thiazol-5-yl]-2-{4-[(3-fluoropyridin-2-yl)oxy]piperidin-1-yl}ethyl}-6-fluorobenzamide] | 32.6 nM | 28.9 nM | 5.6 fold
O=C(NCC(c1scnc1C(F)F)N1CCC(Oc2ccnc3cccnc23)CC1)c1c(F)cccc1Cl (stereo not shown) [Example 48, 2-Chloro-N-{2-[4-(difluoromethyl)-1,3-thiazol-5-yl]-2-[4-(1,5-naphthyridin-4-yloxy)piperidin-1-yl]ethyl}-6-fluorobenzamide] | 74.9 nM | 36 nM | 7.6 fold
O=C(NCC(c1scnc1C(F)F)N1CCC(COc2nnnn2-c2ccccc2)CC1)c1c(F)cccc1Cl (stereo not shown) [Example 97, 2-Chloro-N-{2-[4-(difluoromethyl)-1,3-thiazol-5-yl]-2-(4-{[(1-phenyl-1H-1,2,3,4-tetrazol-5-yl)oxy]methyl}piperidin-1-yl)ethyl}-6-fluorobenzamide] | 34 nM | 13.8 nM | –
O=C(NCC(c1scnc1C(F)F)N1CCC(Oc2nccc(C(F)(F)F)n2)CC1)c1c(F)cccc1Cl (stereo not shown) [Example 42, 2-Chloro-N-{2-[4-(difluoromethyl)-1,3-thiazol-5-yl]-2-(4-{[4-(trifluoromethyl)pyrimidin-2-yl]oxy}piperidin-1-yl)ethyl}-6-fluorobenzamide] | 60.8 nM | 108 nM | –
N#Cc1nccnc1OCC1CCN(C(CNC(=O)c2c(F)cccc2Cl)c2scnc2C(F)F)CC1 (stereo not shown) [Example 92, 2-Chloro-N-[2-(4-{[(3-cyanopyrazin-2-yl)oxy]methyl}piperidin-1-yl)-2-[4-(difluoromethyl)-1,3-thiazol-5-yl]ethyl]-6-fluorobenzamide] | 22.5 nM | 33.5 nM | –
Cc1nc(C)c(F)c(OC2CCN(C(CNC(=O)c3c(F)cccc3Cl)c3scnc3C(F)F)CC2)n1 (stereo not shown) [Example 67, 2-Chloro-N-{2-[4-(difluoromethyl)-1,3-thiazol-5-yl]-2-{4-[(5-fluoro-2,6-dimethylpyrimidin-4-yl)oxy]piperidin-1-yl}ethyl}-6-fluorobenzamide] | 62.3 nM | 64.5 nM | –
Cn1ncc2c(OC3CCN(C(CNC(=O)c4c(F)cccc4Cl)c4scnc4C(F)F)CC3)ncnc21 (stereo not shown) [Example 51, 2-Chloro-N-{2-[4-(difluoromethyl)-1,3-thiazol-5-yl]-2-[4-({1-methyl-1H-pyrazolo[3,4-d]pyrimidin-4-yl}oxy)piperidin-1-yl]ethyl}-6-fluorobenzamide] | 62.2 nM | 68.7 nM | –
O=C(NCC(c1scnc1C(F)F)N1CCC(Oc2ncccc2C(F)(F)F)CC1)c1c(F)cccc1Cl (stereo not shown) [Example 59, 2-Chloro-N-{2-[4-(difluoromethyl)-1,3-thiazol-5-yl]-2-(4-{[3-(trifluoromethyl)pyridin-2-yl]oxy}piperidin-1-yl)ethyl}-6-fluorobenzamide] | 29.4 nM | 56.1 nM | –
O=C(NCC(c1scnc1C(F)F)N1CCC(Oc2nccnc2F)CC1)c1c(F)cccc1Cl (stereo not shown) [Example 34, 2-Chloro-N-{2-[4-(difluoromethyl)-1,3-thiazol-5-yl]-2-{4-[(3-fluoropyrazin-2-yl)oxy]piperidin-1-yl}ethyl}-6-fluorobenzamide] | 55.5 nM | 174 nM | –
O=C(NCC(c1scnc1C(F)F)N1CCC(Oc2cc(C(F)(F)F)ncn2)CC1)c1c(F)cccc1Cl (stereo not shown) [Example 43, 2-Chloro-N-{2-[4-(difluoromethyl)-1,3-thiazol-5-yl]-2-(4-{[6-(trifluoromethyl)pyrimidin-4-yl]oxy}piperidin-1-yl)ethyl}-6-fluorobenzamide] | 69.2 nM | 63.9 nM | –
O=C(NCC(c1scnc1C(F)F)N1CCC(Oc2nc(Cl)cs2)CC1)c1c(F)cccc1Cl (stereo not shown) [Example 12, 2-Chloro-N-(2-{4-[(4-chloro-1,3-thiazol-2-yl)oxy]piperidin-1-yl}-2-[4-(difluoromethyl)-1,3-thiazol-5-yl]ethyl)-6-fluorobenzamide] | 11.8 nM | 43.9 nM | –
O=C(NCC(c1scnc1C(F)F)N1CCC(Oc2ccncc2F)CC1)c1c(F)cccc1Cl (stereo not shown) [Example 6, 2-chloro-N-{2-[4-(difluoromethyl)-1,3-thiazol-5-yl]-2-{4-[(3-fluoropyridin-4-yl)oxy]piperidin-1-yl}ethyl}-6-fluorobenzamide] | 49.9 nM | 69.7 nM | –
O=C(NCC(c1scnc1C(F)F)N1CCC(Oc2ccc(F)cn2)CC1)c1c(F)cccc1Cl (stereo not shown) [Example 30, 2-Chloro-N-{2-[4-(difluoromethyl)-1,3-thiazol-5-yl]-2-{4-[(5-fluoropyridin-2-yl)oxy]piperidin-1-yl}ethyl}-6-fluorobenzamide] | 17.3 nM | 24 nM | –
O=C(NCC(c1scnc1C(F)F)N1CCC(COc2cncc(F)n2)CC1)c1c(F)cccc1Cl (stereo not shown) [Example 105, 2-Chloro-N-{2-[4-(difluoromethyl)-1,3-thiazol-5-yl]-2-(4-{[(6-fluoropyrazin-2-yl)oxy]methyl}piperidin-1-yl)ethyl}-6-fluorobenzamide] | 48.4 nM | 30.4 nM | –
O=C(NCC(c1scnc1C(F)F)N1CCC(Oc2ncccn2)CC1)c1c(F)cccc1Cl (stereo not shown) [Example 4, 2-chloro-N-{2-[4-(difluoromethyl)-1,3-thiazol-5-yl]-2-[4-(pyrimidin-2-yloxy)piperidin-1-yl]ethyl}-6-fluorobenzamide] | 58.2 nM | 408 nM | –
O=C(NCC(c1scnc1C(F)F)N1CCC(COc2cc(C(F)(F)F)ncn2)CC1)c1c(F)cccc1Cl (stereo not shown) [Example 115, 2-Chloro-N-{2-[4-(difluoromethyl)-1,3-thiazol-5-yl]-2-[4-({[6-(trifluoromethyl)pyrimidin-4-yl]oxy}methyl)piperidin-1-yl]ethyl}-6-fluorobenzamide] | 74.5 nM | 44.3 nM | –
O=C(NCC(c1scnc1C(F)F)N1CCC(Oc2cncc(-n3cccn3)n2)CC1)c1c(F)cccc1Cl (stereo not shown) [Example 58, 2-Chloro-N-{2-[4-(difluoromethyl)-1,3-thiazol-5-yl]-2-(4-{[6-(1H-pyrazol-1-yl)pyrazin-2-yl]oxy}piperidin-1-yl)ethyl}-6-fluorobenzamide] | 27.4 nM | 11.5 nM | –
Cc1c(F)ncnc1OC1CCN(C(CNC(=O)c2c(F)cccc2Cl)c2scnc2C(F)F)CC1 (stereo not shown) [Example 40, 2-Chloro-N-{2-[4-(difluoromethyl)-1,3-thiazol-5-yl]-2-{4-[(6-fluoro-5-methylpyrimidin-4-yl)oxy]piperidin-1-yl}ethyl}-6-fluorobenzamide] | 32.7 nM | 50.6 nM | –
N#Cc1nccnc1OC1CCN(C(CNC(=O)c2c(F)cccc2Cl)c2scnc2C(F)F)CC1 (stereo not shown) [Example 17, 2-Chloro-N-(2-{4-[(3-cyanopyrazin-2-yl)oxy]piperidin-1-yl}-2-[4-(difluoromethyl)-1,3-thiazol-5-yl]ethyl)-6-fluorobenzamide] | 55 nM | 320 nM | –
